In PMC13586308, “Cell type–selective targeting by heterobifunctional protein binders via in-cell enrichment” (Nature Communications, 2026):
Where two headings read alike, the source gives them in different places.

Legend:
BRD4^BD2 = biological target: T1, BRD4^BD2 (Homo sapiens, UniProt O60885); experiment: competitive fluorescence polarization assay, BRD4 BD2 -/+ presenter protein; format: binding; conditions: for α BRD4^BD2 (binding cooperativity factor): ratio of binding in absence or presence of FKBP12
T1 construct: to the isolated BD1 and BD2 domains of BRD2, BRD3 and BRD4

FKBP12 [1] = biological target: T2, FKBP12 (Homo sapiens, UniProt P62942); experiment: NanoBRET FKBP12 in intact HEK293 cells; format: cell-based
BRD4^BD1 = biological target: T3, BRD4^BD1 (Homo sapiens, UniProt O60885); experiment: competitive fluorescence polarization assay, BRD4 BD1 -/+ presenter protein; format: binding; conditions: for α BRD4^BD1 (binding cooperativity factor): ratio of binding in absence or presence of FKBP12
T3 construct: to the isolated BD1 and BD2 domains of BRD2, BRD3 and BRD4

FKBP12 [2] = biological target: T2, FKBP12; experiment: competitive fluorescence polarization assay, binding to FKBP12; conditions: competitive FP assay
BRD4 = biological target: T4, BRD4 (Homo sapiens, UniProt O60885); experiment: NanoBRET BRD4, transient BRD4-NanoLuc in HEK293T cells; format: cell-based; conditions: intact HEK293 cells
T4 construct: full-length BRD4 fused to NanoLuc at N terminus; expressed in transfected cells; host or cells: HEK293T
Protocol: The NanoBRET assay was performed as described previously[26],[39]. To study BRD4 engagement, we employed two models: cells stably expressing BRD4-NanoLuc and cells with transient BRD4-NanoLuc expression. For stable cell lines, the coding sequence of human BRD4 (Isoform B) was fused in-frame to NanoLuc luciferase under the control of the human ubiquitin C (UbC) promoter, with left and right homology arms targeting the AAVS1 locus in intron 1 of the PPP1R12C gene to facilitate genomic integration. PC3 prostate cancer cells were transfected with this construct and vectors expressing Cas9 and an sgRNA targeting the AAVS1 locus using Lipofectamine 3000 (Invitrogen). Successful integrands were selected with blasticidin. Expression of the fusion protein was confirmed by western blot. For transient experiments, full-length BRD4 fused to NanoLuc at N terminus, was cloned into an expression plasmid and transfected into HEK293T cells using FuGENE HD (Promega, E2312), with protein expression allowed for 20 h. Serially diluted inhibitors and BRD Tracer-02 (Promega, TracerDB ID: T000022) at the Tracer KD concentration (from TracerDB)[40] were dispensed into white 384-well plates (Greiner 781207) using an ECHO 550 acoustic dispenser (Labcyte). The cells were trypsinized, resuspended in Opti-MEM without phenol red (Life Technologies), and seeded at 2 × 10^5 cells/mL. After equilibration for 2 h at 37 °C/5% CO₂ following compound treatment, the NanoBRET® NanoGlo Substrate + Extracellular NanoLuc® Inhibitor (Promega, N2162) was added according to the manufacturer’s protocol, and filtered luminescence was measured on a PHERAstar plate reader (BMG Labtech) using a donor (450 nm BP) and acceptor (610 nm LP) filter pair. Competitive displacement data were analyzed using GraphPad Prism 9 with a normalized 3-parameter curve fit: Y = 100/(1 + 10^(X − log IC₅₀)). For BRET measurements after FKBP12 knockdown in stably expressing BRD4 Nano-Luc reporter cell line, 10 nL/per well of the FKBP12 PROTAC was pipetted to each well using Labcyte to achieve the final concentration of 200 nM and the plated cells were incubated over-night at 37 °C and 5% CO2. BRET measurements were performed as outlined above.

[3] = absence of FKBP12, 2 nM JQ1-FL tracer, read-out: Binding to BRD4^BD2 - FKBP12 Kd
[4] = presence of 15 µM FKBP12, read-out: Binding to BRD4^BD2 + FKBP12 Kd (converted)
[5] = absence of FKBP12, 2 nM JQ1-FL tracer, read-out: Binding to BRD4^BD1 - FKBP12 Kd
[6] = presence of 15 µM FKBP12, read-out: Binding to BRD4^BD1 + FKBP12 Kd (converted)

T2 sequence (P62942 whole entry): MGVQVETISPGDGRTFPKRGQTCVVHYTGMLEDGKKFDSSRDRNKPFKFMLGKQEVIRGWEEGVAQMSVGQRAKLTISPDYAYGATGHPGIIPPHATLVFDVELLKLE

| Structure (SMILES) | Kd (BRD4^BD2; [3]) | α BRD4^BD2 (binding cooperativity factor) (BRD4^BD2) | IC50 (FKBP12 [1]) | α BRD4^BD1 (binding cooperativity factor) (BRD4^BD1) | Kd (FKBP12 [2]) | IC50 (BRD4) | Kd (BRD4^BD2; [4]) | Kd (BRD4^BD1; [5]) | Kd (BRD4^BD1; [6]) |
| --- | --- | --- | --- | --- | --- | --- | --- | --- | --- |
| Cc1sc2c(c1C)C(c1ccc(Cl)cc1)=NC(CC(=O)NCCOCCn1cc(C3CN(Cc4ccccn4)C(=O)C4CCCC3N4S(=O)(=O)c3cc(Cl)cc(Cl)c3)nn1)c1nnc(C)n1-2 (stereo not shown) [a1c] | 590 ± 110 nM | 0.4 | 22 nM | 0.3 | 1 nM | 940 nM | – | – | – |
| Cc1sc2c(c1C)C(c1ccc(Cl)cc1)=NC(CC(=O)NCCOCCn1cc(COCC3CN(CC(=O)N4CCC(C)CC4)C(=O)C4CCCC3N4S(=O)(=O)c3cc(Cl)cc(Cl)c3)nn1)c1nnc(C)n1-2 (stereo not shown) [a1dk] | 320 ± 60 nM | 0.4 | 9.1 nM | 2.6 | 0.47 nM | 1190 nM | 800 ± 100 nM | 520 ± 90 nM | 200 ± 40 nM |
| Cc1sc2c(c1C)C(c1ccc(Cl)cc1)=NC(CC(=O)NCCOCCn1cc(COC(C)C3CN(Cc4ccccn4)C(=O)C4CCCC3N4S(=O)(=O)c3cc(Cl)cc(Cl)c3)nn1)c1nnc(C)n1-2 (stereo not shown) [a1e] | 33 ± 9 nM | 0.6 | 103 nM | 1.5 | 8.9 nM | 390 nM | 60 ± 10 nM | 70 ± 10 nM | 48 ± 7 nM |
| Cc1sc2c(c1C)C(c1ccc(Cl)cc1)=NC(CC(=O)NCCOCCn1cc(COC(C)C3CN(Cc4ccccn4)C(=O)C4CCCC3N4S(=O)(=O)c3cc(Cl)cc(Cl)c3)nn1)c1nnc(C)n1-2 (stereo not shown) [a1f] | 50 ± 14 nM | 0.2 | 24 nM | 1.3 | 1.6 nM | 560 nM | 230 ± 30 nM | 180 ± 20 nM | 140 ± 14 nM |
| C=CC1CN(Cc2ccccn2)C(=O)C2CCCC1N2S(=O)(=O)c1cc(Cl)cc(-c2cn(CCOCCNC(=O)CC3N=C(c4ccc(Cl)cc4)c4c(sc(C)c4C)-n4c(C)nnc43)nn2)c1 (stereo not shown) [a1g] | – | 0.2 | 230 nM | – | 46 nM | 1500 nM | – | – | > 20000 nM |
| C=CC1CN(Cc2ccccn2)C(=O)C2CCCC1N2S(=O)(=O)c1ccc(-c2cn(CCOCCNC(=O)CC3N=C(c4ccc(Cl)cc4)c4c(sc(C)c4C)-n4c(C)nnc43)nn2)c(Cl)c1 (stereo not shown) [a1h] | 52 ± 13 nM | – | 530 nM | – | 50 nM | 270 nM | 1100 ± 200 nM | 100 ± 18 nM | 1700 ± 200 nM |
| C=CC1CN(Cc2cn(CCOCCNC(=O)CC3N=C(c4ccc(Cl)cc4)c4c(sc(C)c4C)-n4c(C)nnc43)nn2)C(=O)C2CCCC1N2S(=O)(=O)c1cc(Cl)cc(Cl)c1 (stereo not shown) [a1i] | 910 ± 160 nM | 0.3 | 200 nM | 0.5 | 10 nM | 560 nM | – | – | – |
| Cc1sc2c(c1C)C(c1ccc(Cl)cc1)=NC(CC(=O)NCCOCCOCCn1cc(C3CN(Cc4ccccn4)C(=O)C4CCCC3N4S(=O)(=O)c3cc(Cl)cc(Cl)c3)nn1)c1nnc(C)n1-2 (stereo not shown) [a2c] | 510 ± 110 nM | 0.5 | 17 nM | 1.8 | 0.6 nM | 620 nM | – | 440 ± 70 nM | 250 ± 40 nM |
| C=CC1CN(Cc2ccccn2)C(=O)C2CCCC1N2S(=O)(=O)c1cc(Cl)cc(-c2cn(CCOCCOCCNC(=O)CC3N=C(c4ccc(Cl)cc4)c4c(sc(C)c4C)-n4c(C)nnc43)nn2)c1 (stereo not shown) [a2g] | 580 ± 90 nM | 0.4 | – | 0.4 | 76 nM | 3070 nM | – | – | – |
